Data published in patent US11013817B2, “Nanoparticles for drug delivery to treat bone disease” (The Cleveland Clinic Foundation, priority 2016, dated 2021).

Assay: Solid state solubility of PTX and TXT in polymers (phase separation in cast films)
Assay type: physicochemical
Parameters: key: +ve: Phase separation; −ve: No phase separation
Excerpt: For this example, polymer and drug solutions in chloroform at different % of drug to polymer were casted into films on glass slides. Following solvent evaporation of chloroform in a chemical hood overnight, the casted films were observed under a light microscope. Phase separation was clearly evident from crystallization of the drug in the polymer film whereas the films were homogeneous when there was no phase separation.

Phase Separation (drug 1% w/w, polymer inherent viscosity 0.16 dL/g, Lactide/Glycolide 50/50): +
Phase Separation (drug 1% w/w, polymer inherent viscosity 0.18 dL/g, Lactide/Glycolide 75/25): +
Phase Separation (drug 1% w/w, polymer inherent viscosity 0.26-0.54 dL/g, Lactide/Glycolide 50/50, Ester Terminated): −
Phase Separation (drug 1% w/w, polymer inherent viscosity 0.39 dL/g, Lactide/Glycolide 50/50): +
Phase Separation (drug 1% w/w, polymer inherent viscosity 0.55-0.75 dL/g, Lactide/Glycolide 50/50, Carbohydrate end Group): −
Phase Separation (drug 1% w/w, polymer inherent viscosity 0.63 dL/g, Lactide/Glycolide 85/15): +
Phase Separation (drug 1% w/w, polymer inherent viscosity 0.64 dL/g, Lactide/Glycolide 65/35): +
Phase Separation (drug 1% w/w, polymer inherent viscosity 0.64 dL/g, Lactide/Glycolide 75/25): +
Phase Separation (drug 1% w/w, polymer inherent viscosity 0.67 dL/g, Lactide/Glycolide 65/35): +
Phase Separation (drug 1% w/w, polymer inherent viscosity 0.69 dL/g, Lactide/Glycolide 50/50 (first of two such lines, r12)): +
Phase Separation (drug 1% w/w, polymer inherent viscosity 0.69 dL/g, Lactide/Glycolide 50/50 (second of two such lines, r13)): +
Phase Separation (drug 1% w/w, polymer inherent viscosity 0.76-0.94 dL/g, Lactide/Glycolide 50/50): +
Phase Separation (drug 1% w/w, polymer inherent viscosity 0.87 dL/g, Lactide/Glycolide 50/50): +
Phase Separation (drug 1% w/w, polymer inherent viscosity 0.95-1.20 dL/g, Lactide/Glycolide 50/50): −
Phase Separation (drug 1% w/w, polymer inherent viscosity 1.15 dL/g, Lactide/Glycolide 50/50): +
Phase Separation (drug 1% w/w, polymer inherent viscosity 1.24 dL/g, Lactide/Glycolide 50/50): +
Phase Separation (drug 5% w/w, polymer inherent viscosity 0.16 dL/g, Lactide/Glycolide 50/50): +
Phase Separation (drug 5% w/w, polymer inherent viscosity 0.18 dL/g, Lactide/Glycolide 75/25): +
Phase Separation (drug 5% w/w, polymer inherent viscosity 0.26-0.54 dL/g, Lactide/Glycolide 50/50, Ester Terminated): −
Phase Separation (drug 5% w/w, polymer inherent viscosity 0.39 dL/g, Lactide/Glycolide 50/50): +
Phase Separation (drug 5% w/w, polymer inherent viscosity 0.55-0.75 dL/g, Lactide/Glycolide 50/50, Carbohydrate end Group): −
Phase Separation (drug 5% w/w, polymer inherent viscosity 0.63 dL/g, Lactide/Glycolide 85/15): +
Phase Separation (drug 5% w/w, polymer inherent viscosity 0.64 dL/g, Lactide/Glycolide 65/35): +
Phase Separation (drug 5% w/w, polymer inherent viscosity 0.64 dL/g, Lactide/Glycolide 75/25): +
Phase Separation (drug 5% w/w, polymer inherent viscosity 0.67 dL/g, Lactide/Glycolide 65/35): +
Phase Separation (drug 5% w/w, polymer inherent viscosity 0.69 dL/g, Lactide/Glycolide 50/50 (first of two such lines, r12)): +
Phase Separation (drug 5% w/w, polymer inherent viscosity 0.69 dL/g, Lactide/Glycolide 50/50 (second of two such lines, r13)): +
Phase Separation (drug 5% w/w, polymer inherent viscosity 0.76-0.94 dL/g, Lactide/Glycolide 50/50): +
Phase Separation (drug 5% w/w, polymer inherent viscosity 0.87 dL/g, Lactide/Glycolide 50/50): +
Phase Separation (drug 5% w/w, polymer inherent viscosity 0.95-1.20 dL/g, Lactide/Glycolide 50/50): −
Phase Separation (drug 5% w/w, polymer inherent viscosity 1.15 dL/g, Lactide/Glycolide 50/50): +
Phase Separation (drug 5% w/w, polymer inherent viscosity 1.24 dL/g, Lactide/Glycolide 50/50): +
Phase Separation (drug 10% w/w, polymer inherent viscosity 0.16 dL/g, Lactide/Glycolide 50/50): +
Phase Separation (drug 10% w/w, polymer inherent viscosity 0.18 dL/g, Lactide/Glycolide 75/25): +
Phase Separation (drug 10% w/w, polymer inherent viscosity 0.26-0.54 dL/g, Lactide/Glycolide 50/50, Ester Terminated): −
Phase Separation (drug 10% w/w, polymer inherent viscosity 0.39 dL/g, Lactide/Glycolide 50/50): +
Phase Separation (drug 10% w/w, polymer inherent viscosity 0.55-0.75 dL/g, Lactide/Glycolide 50/50, Carbohydrate end Group): −
Phase Separation (drug 10% w/w, polymer inherent viscosity 0.63 dL/g, Lactide/Glycolide 85/15): +
Phase Separation (drug 10% w/w, polymer inherent viscosity 0.64 dL/g, Lactide/Glycolide 65/35): +
Phase Separation (drug 10% w/w, polymer inherent viscosity 0.64 dL/g, Lactide/Glycolide 75/25): +
Phase Separation (drug 10% w/w, polymer inherent viscosity 0.67 dL/g, Lactide/Glycolide 65/35): +
Phase Separation (drug 10% w/w, polymer inherent viscosity 0.69 dL/g, Lactide/Glycolide 50/50 (first of two such lines, r12)): +
Phase Separation (drug 10% w/w, polymer inherent viscosity 0.69 dL/g, Lactide/Glycolide 50/50 (second of two such lines, r13)): +
Phase Separation (drug 10% w/w, polymer inherent viscosity 0.76-0.94 dL/g, Lactide/Glycolide 50/50): +
Phase Separation (drug 10% w/w, polymer inherent viscosity 0.87 dL/g, Lactide/Glycolide 50/50): +
Phase Separation (drug 10% w/w, polymer inherent viscosity 0.95-1.20 dL/g, Lactide/Glycolide 50/50): −
Phase Separation (drug 10% w/w, polymer inherent viscosity 1.15 dL/g, Lactide/Glycolide 50/50): +
Phase Separation (drug 10% w/w, polymer inherent viscosity 1.24 dL/g, Lactide/Glycolide 50/50): +
Phase Separation (drug 15% w/w, polymer inherent viscosity 0.16 dL/g, Lactide/Glycolide 50/50): +
Phase Separation (drug 15% w/w, polymer inherent viscosity 0.18 dL/g, Lactide/Glycolide 75/25): +
Phase Separation (drug 15% w/w, polymer inherent viscosity 0.26-0.54 dL/g, Lactide/Glycolide 50/50, Ester Terminated): −
Phase Separation (drug 15% w/w, polymer inherent viscosity 0.39 dL/g, Lactide/Glycolide 50/50): +
Phase Separation (drug 15% w/w, polymer inherent viscosity 0.55-0.75 dL/g, Lactide/Glycolide 50/50, Carbohydrate end Group): −
Phase Separation (drug 15% w/w, polymer inherent viscosity 0.63 dL/g, Lactide/Glycolide 85/15): +
Phase Separation (drug 15% w/w, polymer inherent viscosity 0.64 dL/g, Lactide/Glycolide 65/35): +
Phase Separation (drug 15% w/w, polymer inherent viscosity 0.64 dL/g, Lactide/Glycolide 75/25): +
Phase Separation (drug 15% w/w, polymer inherent viscosity 0.67 dL/g, Lactide/Glycolide 65/35): +
Phase Separation (drug 15% w/w, polymer inherent viscosity 0.69 dL/g, Lactide/Glycolide 50/50 (first of two such lines, r12)): +
Phase Separation (drug 15% w/w, polymer inherent viscosity 0.69 dL/g, Lactide/Glycolide 50/50 (second of two such lines, r13)): +
Phase Separation (drug 15% w/w, polymer inherent viscosity 0.76-0.94 dL/g, Lactide/Glycolide 50/50): +
Phase Separation (drug 15% w/w, polymer inherent viscosity 0.87 dL/g, Lactide/Glycolide 50/50): +
Phase Separation (drug 15% w/w, polymer inherent viscosity 0.95-1.20 dL/g, Lactide/Glycolide 50/50): −
Phase Separation (drug 15% w/w, polymer inherent viscosity 1.15 dL/g, Lactide/Glycolide 50/50): +
Phase Separation (drug 15% w/w, polymer inherent viscosity 1.24 dL/g, Lactide/Glycolide 50/50): +
Phase Separation (drug 20% w/w, polymer inherent viscosity 0.16 dL/g, Lactide/Glycolide 50/50): +
Phase Separation (drug 20% w/w, polymer inherent viscosity 0.18 dL/g, Lactide/Glycolide 75/25): +
Phase Separation (drug 20% w/w, polymer inherent viscosity 0.26-0.54 dL/g, Lactide/Glycolide 50/50, Ester Terminated): −
Phase Separation (drug 20% w/w, polymer inherent viscosity 0.39 dL/g, Lactide/Glycolide 50/50): +
Phase Separation (drug 20% w/w, polymer inherent viscosity 0.55-0.75 dL/g, Lactide/Glycolide 50/50, Carbohydrate end Group): −
Phase Separation (drug 20% w/w, polymer inherent viscosity 0.63 dL/g, Lactide/Glycolide 85/15): +
Phase Separation (drug 20% w/w, polymer inherent viscosity 0.64 dL/g, Lactide/Glycolide 65/35): +
Phase Separation (drug 20% w/w, polymer inherent viscosity 0.64 dL/g, Lactide/Glycolide 75/25): +
Phase Separation (drug 20% w/w, polymer inherent viscosity 0.67 dL/g, Lactide/Glycolide 65/35): +
Phase Separation (drug 20% w/w, polymer inherent viscosity 0.69 dL/g, Lactide/Glycolide 50/50 (first of two such lines, r12)): +
Phase Separation (drug 20% w/w, polymer inherent viscosity 0.69 dL/g, Lactide/Glycolide 50/50 (second of two such lines, r13)): +
Phase Separation (drug 20% w/w, polymer inherent viscosity 0.76-0.94 dL/g, Lactide/Glycolide 50/50): +
Phase Separation (drug 20% w/w, polymer inherent viscosity 0.87 dL/g, Lactide/Glycolide 50/50): +
Phase Separation (drug 20% w/w, polymer inherent viscosity 0.95-1.20 dL/g, Lactide/Glycolide 50/50): +
Phase Separation (drug 20% w/w, polymer inherent viscosity 1.15 dL/g, Lactide/Glycolide 50/50): +
Phase Separation (drug 20% w/w, polymer inherent viscosity 1.24 dL/g, Lactide/Glycolide 50/50): +
SMILES: CC(=O)O[C@H]1C(=O)[C@@]2(C)[C@H]([C@H](OC(=O)c3ccccc3)[C@]3(O)C[C@H](OC(=O)[C@H](O)[C@@H](NC(=O)c4ccccc4)c4ccccc4)C(C)=C1C3(C)C)[C@]1(OC(C)=O)CO[C@@H]1C[C@@H]2O [Paclitaxel, 5ß,20-Epoxy-1,2a,4,7ß,10ß,13a-hexahydroxytax-11-en-9-one 4,10-diacetate 2-benzoate 13-ester with (2R,3S)-N-benzoyl-3-phenylisoserine]
